Our source for the inhibition of growth values is patent US20250325534A1, “MICROBIOCIDAL TETRAHYDROISOQUINOLINE DERIVATIVES” (SYNGENTA CROP PROTECTION AG, priority 2021, published 2025).

Holding throughout (type): cell-based
Assay [1] deals with Mycosphaerella graminicola. In words: Mycosphaerella graminicola (Septoria tritici) / liquid culture (Septoria blotch). The conditions noted are these: Zymoseptoria tritici, 96 h, photometrically 4-5 days after application, read-out: control of Mycosphaerella graminicola. The protocol: Example B19: Mycosphaerella graminicola (Septoria tritici)/Liquid Culture (Septoria Blotch) Conidia of the fungus from cryogenic storage are directly mixed into a nutrient broth (potato dextrose broth). After placing a DMSO solution of test compound into a microtiter plate (96-well format), the nutrient broth containing the fungal spores is added. The test plates are incubated at 24° C. and the inhibition of growth is determined photometrically 4-5 days after application.

A further assay has as its system Mycosphaerella arachidis. The assay can be described thus: Mycosphaerella arachidis (Cercospora arachidicola) / liquid culture (early leaf spot). The note with it: 96 h, photometrically 4-5 days after application, read-out: control of Mycosphaerella arachidis. How it is done: Example B11: Mycosphaerella arachidis (Cercospora arachidicola)/Liquid Culture (Early Leaf Spot) Conidia of the fungus from cryogenic storage are directly mixed into a nutrient broth (potato dextrose broth). After placing a DMSO solution of test compound into a microtiter plate (96-well format), the nutrient broth containing the fungal spores is added. The test plates are incubated at 24° C. and the inhibition of growth is determined photometrically 4-5 days after application.

In the next assay the test system is Monographella nivalis. The assay can be described thus: Monographella nivalis (Microdochium nivale) / liquid culture (foot rot cereals). The conditions noted are these: 96 h, photometrically 4-5 days after application, read-out: control of Monographella nivalis. How it is done:
Example B10: Monographella nivalis (Microdochium nivale)/Liquid Culture (Foot Rot Cereals) Conidia of the fungus from cryogenic storage are directly mixed into a nutrient broth (potato dextrose broth). After placing a DMSO solution of test compound into a microtiter plate (96-well format), the nutrient broth containing the fungal spores is added. The test plates are incubated at 24° C. and the inhibition of growth is determined photometrically 4-5 days after application.

Another assay has as its system Glomerella lagenarium. The assay can be described thus: Glomerella lagenarium (Colletotrichum lagenarium) / liquid culture (anthracnose). The conditions noted are these: Colletotrichum orbiculare, 72 h, photometrically 3-4 days after application, read-out: control of Glomerella lagenarium. How it is done: Example B5: Glomerella Lagenarium (Colletotrichum Lagenarium)/Liquid Culture (Anthracnose) Conidia of the fungus from cryogenic storage are directly mixed into a nutrient broth (potato dextrose broth). After placing a DMSO solution of test compound into a microtiter plate (96-well format), the nutrient broth containing the fungal spores is added. The test plates are incubated at 24° C. and the inhibition of growth is measured photometrically 3-4 days after application.

In the case of `CC1c2ccc(OC(F)F)cc2C(C)(c2cnn(C)c2)CN1C(=O)c1cc(-c2ccc(F)cc2F)on1` (stereo not drawn) [Compound P-30, [6-(difluoromethoxy)-1,4-dimethyl-4-(1-methylpyrazol-4-yl)-1,3-dihydroisoquinolin-2-yl]-[5-(2,4-difluorophenyl)isoxazol-3-yl]methanone], the inhibition of growth at 20 ppm (in assay [1]; in the assay on Mycosphaerella arachidis; with Monographella nivalis) was at least 80% throughout.

As to `CC1c2ccc(OCC(F)F)cc2C(C)(c2cnn(C)c2)CN1C(=O)c1cc(-c2ccc(F)cc2F)on1` (stereo not drawn) [Compound P-33, [6-(2,2-difluoroethoxy)-1,4-dimethyl-4-(1-methylpyrazol-4-yl)-1,3-dihydroisoquinolin-2-yl]-[5-(2,4-difluorophenyl)isoxazol-3-yl]methanone], the inhibition of growth at 20 ppm (in assay [1]; in the assay with Mycosphaerella arachidis; with Monographella nivalis) was at least 80% throughout.

With `COc1ccc2c(c1)C(C)(c1cnn(C)c1)CN(C(=O)c1cc(-c3ccccc3)on1)C2C` (stereo not drawn) [Compound P-39, [6-methoxy-1,4-dimethyl-4-(1-methylpyrazol-4-yl)-1,3-dihydroisoquinolin-2-yl]-(5-phenylisoxazol-3-yl)methanone], the inhibition of growth at 20 ppm (in assay [1]; in the assay with Mycosphaerella arachidis; in the assay with Monographella nivalis) was at least 80% in each case.

For the compound `COc1ccc2c(c1)CN(C(=O)c1cc(-c3ccccc3)on1)CC2c1cnn(C)c1` (stereo not drawn) [Compound P-50, [7-methoxy-4-(1-methylpyrazol-4-yl)-3,4-dihydro-1H-isoquinolin-2-yl]-(5-phenylisoxazol-3-yl)methanone], the inhibition of growth at 20 ppm (in assay [1]; in the assay on Glomerella lagenarium; with Mycosphaerella arachidis) was at least 80% throughout.

With `Cn1cc(C2CN(C(=O)c3cc(-c4ccc(F)cc4F)on3)Cc3ccc(Cl)cc32)cn1` (stereo not drawn) [Compound P-58, [6-chloro-4-(1-methylpyrazol-4-yl)-3,4-dihydro-1H-isoquinolin-2-yl]-[5-(2,4-difluorophenyl)isoxazol-3-yl]methanone], the inhibition of growth at 20 ppm (in assay [1]; in the assay with Glomerella lagenarium; in the assay with Monographella nivalis) was at least 80% throughout.

Consider `Cn1cc(C2CN(C(=O)c3ccc(-c4ccc(C(F)(F)F)cc4)o3)Cc3ccccc32)cn1` (stereo not drawn) [Compound P-76, [4-(1-methylpyrazol-4-yl)-3,4-dihydro-1H-isoquinolin-2-yl]-[5-[4-(trifluoromethyl)phenyl]-2-furyl]methanone], for which, in the assay on Glomerella lagenarium, the inhibition of growth at 20 ppm was at least 80%.

Turning to `Cn1cc(C2CN(C(=O)c3ccc(-c4ccc(F)cc4)o3)Cc3ccccc32)cn1` (stereo not drawn) [Compound P-97, [5-(4-fluorophenyl)-2-furyl]-[4-(1-methylpyrazol-4-yl)-3,4-dihydro-1H-isoquinolin-2-yl]methanone], the inhibition of growth at 20 ppm in the assay on Glomerella lagenarium was at least 80%.

As to `Cn1cc(C2CN(C(=O)c3cc(-c4ccc(F)cc4F)on3)Cc3cc(C(F)(F)F)ccc32)cn1` (stereo not drawn) [Compound P-111, [5-(2,4-difluorophenyl)isoxazol-3-yl]-[4-(1-methylpyrazol-4-yl)-7-(trifluoromethyl)-3,4-dihydro-1H-isoquinolin-2-yl]methanone], the inhibition of growth at 20 ppm (in assay [1]; in the assay with Glomerella lagenarium; in the assay on Monographella nivalis) was at least 80% each time.

Regarding `Cc1nn(C)c(C)c1C1CN(C(=O)c2cc(-c3ccc(Cl)cc3F)on2)Cc2ccccc21` (stereo not drawn) [Compound P-125, [5-(4-chloro-2-fluoro-phenyl)isoxazol-3-yl]-[4-(1,3,5-trimethylpyrazol-4-yl)-3,4-dihydro-1H-isoquinolin-2-yl]methanone], the inhibition of growth at 20 ppm (in assay [1]; in the assay with Mycosphaerella arachidis; with Monographella nivalis) was at least 80% in each case.

Regarding `Cn1cc(C2CN(C(=O)c3cc(-c4ccccc4)on3)Cc3ccc(F)cc32)cn1` (stereo not drawn) [Compound P-139, [6-fluoro-4-(1-methylpyrazol-4-yl)-3,4-dihydro-1H-isoquinolin-2-yl]-(5-phenylisoxazol-3-yl)methanone], the inhibition of growth at 20 ppm (in assay [1]; in the assay on Glomerella lagenarium; with Mycosphaerella arachidis) was at least 80% in each case.

`Cn1cc(C2CN(C(=O)c3cc(-c4cc(F)ccc4F)on3)Cc3ccccc32)cn1` (stereo not drawn) [Compound P-149, [5-(2,5-difluorophenyl)isoxazol-3-yl]-[4-(1-methylpyrazol-4-yl)-3,4-dihydro-1H-isoquinolin-2-yl]methanone]: the inhibition of growth at 20 ppm (in assay [1]; in the assay on Glomerella lagenarium; in the assay with Monographella nivalis) was at least 80% throughout.

Regarding `Cc1ccccc1-c1cc(C(=O)N2Cc3ccccc3C(c3cnn(C)c3)C2)no1` (stereo not drawn) [Compound P-169, [4-(1-methylpyrazol-4-yl)-3,4-dihydro-1H-isoquinolin-2-yl]-[5-(o-tolyl)isoxazol-3-yl]methanone], the inhibition of growth at 20 ppm (in assay [1]; in the assay on Glomerella lagenarium; in the assay with Monographella nivalis) was at least 80% in each case.

On to `Cn1cc(C2CN(C(=O)c3cc(-c4cccn4C)on3)Cc3ccccc32)cn1` (stereo not drawn) [Compound P-179, [4-(1-methylpyrazol-4-yl)-3,4-dihydro-1H-isoquinolin-2-yl]-[5-(1-methylpyrrol-2-yl)isoxazol-3-yl]methanone], for which the inhibition of growth at 20 ppm (in assay [1]; in the assay on Mycosphaerella arachidis; in the assay with Monographella nivalis) was at least 80% in each case.

Regarding `Cc1cccc(-c2cc(C(=O)N3Cc4ccccc4C(c4cnn(C)c4)C3)no2)c1` (stereo not drawn) [Compound P-187, [4-(1-methylpyrazol-4-yl)-3,4-dihydro-1H-isoquinolin-2-yl]-[5-(m-tolyl)isoxazol-3-yl]methanone], the inhibition of growth at 20 ppm (in assay [1]; in the assay with Glomerella lagenarium) was at least 80% throughout.

Regarding `Cn1cc(C2CN(C(=O)c3cc(-c4ccco4)on3)Cc3ccccc32)cn1` (stereo not drawn) [Compound P-188, [5-(2-furyl)isoxazol-3-yl]-[4-(1-methylpyrazol-4-yl)-3,4-dihydro-1H-isoquinolin-2-yl]methanone], the inhibition of growth at 20 ppm (in assay [1]; with Glomerella lagenarium; with Mycosphaerella arachidis) was at least 80% each time.

Take `Cn1cc(C2CN(C(=O)c3cc(-c4cccc(Cl)c4)on3)Cc3ccccc32)cn1` (stereo not drawn) [Compound P-190, [5-(3-chlorophenyl)-isoxazol-3-yl]-[4-(1-methylpyrazol-4-yl)-3,4-dihydro-1H-isoquinolin-2-yl]methanone]: the inhibition of growth at 20 ppm (in assay [1]; in the assay on Glomerella lagenarium; in the assay on Monographella nivalis) was at least 80% in each case.

In the case of `CC1c2ccccc2C(c2cnn(C)c2)(C(C)C)CN1C(=O)c1cc(-c2ccc(F)cc2F)on1` (stereo not drawn) [Compound P-220, [5-(2,4-difluorophenyl)isoxazol-3-yl]-[4-isopropyl-1-methyl-4-(1-methylpyrazol-4-yl)-1,3-dihydroisoquinolin-2-yl]methanone], the inhibition of growth at 20 ppm (in assay [1]; with Mycosphaerella arachidis) was at least 80% each time.

Consider `CCC1(c2cnn(C)c2)CN(C(=O)c2cc(-c3ccc(F)cc3F)on2)C(C)c2ccccc21` (stereo not drawn) [Compound P-222, [5-(2,4-difluorophenyl)isoxazol-3-yl]-[4-ethyl-1-methyl-4-(1-methylpyrazol-4-yl)-1,3-dihydroisoquinolin-2-yl]methanone], for which the inhibition of growth at 20 ppm (in assay [1]; with Mycosphaerella arachidis; in the assay with Monographella nivalis) was at least 80% throughout.

As to `Cc1cc(-c2cc(C(=O)N3Cc4ccccc4C(c4cnn(C)c4C)C3)no2)n(C)n1` (stereo not drawn) [Compound P-226], the inhibition of growth at 20 ppm (in assay [1]; in the assay on Glomerella lagenarium) was at least 80% in each case.

With `Cc1c(C2CN(C(=O)c3cc(C4CCCCC4)on3)Cc3ccccc32)cnn1C` (stereo not drawn) [Compound P-236, (5-cyclohexylisoxazol-3-yl)-[4-(1,5-dimethylpyrazol-4-yl)-3,4-dihydro-1H-isoquinolin-2-yl]methanone], the inhibition of growth at 20 ppm (in assay [1]; with Mycosphaerella arachidis; in the assay on Monographella nivalis) was at least 80% each time.

For `CC(C)[C@@]1(c2cnn(C)c2)CN(C(=O)c2cc(-c3ccc(F)cc3F)on2)[C@@H](C)c2ccccc21` [Compound P-239, [5-(2,4-difluorophenyl)isoxazol-3-yl]-[(1S,4R)-4-isopropyl-1-methyl-4-(1-methylpyrazol-4-yl)-1,3-dihydroisoquinolin-2-yl]methanone], the inhibition of growth at 20 ppm (in assay [1]; in the assay on Mycosphaerella arachidis) was at least 80% throughout.

Take `CC(C)[C@]1(c2cnn(C)c2)CN(C(=O)c2cc(-c3ccc(F)cc3F)on2)[C@@H](C)c2ccccc21` [Compound P-241, [5-(2,4-difluorophenyl)isoxazol-3-yl]-[(1S,4S)-4-isopropyl-1-methyl-4-(1-methylpyrazol-4-yl)-1,3-dihydroisoquinolin-2-yl]methanone]: the inhibition of growth at 20 ppm (in assay [1]; with Mycosphaerella arachidis) was at least 80% in each case.
